Source: PubChem BioAssay (NCI)
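Where inhibition never reached the appropriate level, the endpoint shown equals the highest concentration tested. Otherwise, values were interpolated linearly from a five-concentration, 48-hour dose response in 96-well plates. The concentration for 50% growth inhibition is given as GI50. The concentration for full growth arrest is given as TGI.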

What was measured:
Assay in all cases: DTP human tumour cell line panel, 48 h
[1] = system: HCC-2998 colon
[2] = system: OVCAR-8 ovarian
[3] = system: MDA-MB-231 breast
[4] = system: SF-539 CNS
[5] = system: T-47D breast
[6] = system: SF-268 CNS
[7] = system: MOLT-4 leukemia
[8] = system: KM12 colon
[9] = system: HCT-116 colon
[10] = system: NCI-H522 lung
[11] = system: MALME-3M melanoma
[12] = system: CCRF-CEM leukemia
[13] = system: MCF7 breast
[14] = system: SR leukemia
[15] = system: MDA-MB-468 breast
[16] = system: SK-OV-3 ovarian
[17] = system: 786-0 renal
[18] = system: ACHN renal
[19] = system: RXF 393 renal
[20] = system: RPMI-8226 leukemia
[21] = system: UACC-62 melanoma
[22] = system: HS 578T breast
[23] = system: HOP-92 NSCLC
[24] = system: OVCAR-4 ovarian
[25] = system: SK-MEL-28 melanoma
[26] = system: CAKI-1 renal
[27] = system: BT-549 breast
[28] = system: SF-295 CNS
[29] = system: UO-31 renal
[30] = system: NCI-H460 lung
[31] = system: SNB-19 CNS
[32] = system: OVCAR-5 ovarian
[33] = system: NCI-H226 lung
[34] = system: HOP-62 NSCLC
[35] = system: A498 renal
[36] = system: IGROV1 ovarian
[37] = system: NCI/ADR-RES ovarian
[38] = system: TK-10 renal
[39] = system: HCT-15 colon
[40] = system: PC-3 prostate
[41] = system: U251 CNS

Structure (SMILES): O=C(Nc1ccc(C(F)(F)F)cc1)Nc1ccc2oc(=O)ccc2c1
- GI50 [1]: 3.51 µM
- TGI [1]: > 100 µM
- GI50 [2]: 5.93 µM
- TGI [2]: > 100 µM
- GI50 [3]: 11.7 µM
- TGI [3]: > 100 µM
- GI50 [4]: 5.81 µM
- TGI [4]: > 100 µM
- GI50 [5]: 2.85 µM
- TGI [5]: > 100 µM
- GI50 [6]: 18.6 µM
- TGI [6]: > 100 µM
- GI50 [7]: 2.86 µM
- TGI [7]: > 100 µM
- GI50 [8]: 3.51 µM
- TGI [8]: > 100 µM
- GI50 [9]: 2.95 µM
- TGI [9]: > 100 µM
- GI50 [10]: 2.8 µM
- TGI [10]: > 100 µM
- GI50 [11]: 4.87 µM
- TGI [11]: > 100 µM
- GI50 [12]: 3.2 µM
- TGI [12]: > 100 µM
- GI50 [13]: 2.48 µM
- TGI [13]: > 100 µM
- GI50 [14]: 3.86 µM
- TGI [14]: > 100 µM
- GI50 [15]: 2.97 µM
- TGI [15]: > 100 µM
- GI50 [16]: 91.4 µM
- TGI [16]: > 100 µM
- GI50 [17]: 19.3 µM
- TGI [17]: > 100 µM
- GI50 [18]: 2.7 µM
- TGI [18]: > 100 µM
- GI50 [19]: 18.2 µM
- TGI [19]: > 100 µM
- GI50 [20]: 2.04 µM
- TGI [20]: 5.87 µM
- GI50 [21]: 5.76 µM
- TGI [21]: > 100 µM
- GI50 [22]: 16.7 µM
- TGI [22]: > 100 µM
- GI50 [23]: 1.49 µM
- TGI [23]: 5.73 µM
- GI50 [24]: 5.4 µM
- TGI [24]: > 100 µM
- GI50 [25]: > 100 µM
- TGI [25]: > 100 µM
- GI50 [26]: 2.58 µM
- TGI [26]: > 100 µM
- GI50 [27]: 3.4 µM
- TGI [27]: > 100 µM
- GI50 [28]: 2.63 µM
- TGI [28]: > 100 µM
- GI50 [29]: 2.14 µM
- TGI [29]: > 100 µM
- GI50 [30]: 4.17 µM
- TGI [30]: > 100 µM
- GI50 [31]: 4.37 µM
- TGI [31]: > 100 µM
- GI50 [32]: > 100 µM
- TGI [32]: > 100 µM
- GI50 [33]: 3.67 µM
- TGI [33]: > 100 µM
- GI50 [34]: 9.77 µM
- TGI [34]: > 100 µM
- GI50 [35]: > 100 µM
- TGI [35]: > 100 µM
- GI50 [36]: 3.55 µM
- TGI [36]: > 100 µM
- GI50 [37]: 3.86 µM
- TGI [37]: > 100 µM
- GI50 [38]: > 100 µM
- TGI [38]: > 100 µM
- GI50 [39]: 2.91 µM
- TGI [39]: > 100 µM
- GI50 [40]: 2.34 µM
- TGI [40]: > 100 µM
- GI50 [41]: 4.34 µM
- TGI [41]: > 100 µM
